Experimental data: patent US4368267A, “Epoxidation of lower α-olefins” (priority 1980, dated 1983)
Read-outs that look alike come from different tables or passages of the source.

Columns and labels:
[1] = tested on: Methylosinus sp. (CRL 15 PMI, NRRL B-11,202); experiment: Isobutylene epoxidation by washed cell suspensions; type: cell-based; settings: methane-grown washed cells
Protocol: (§1) The pH of the nutrient medium was adjusted to 7.0 by the addition of acid or base and 50 ml aliquots of the nutrient medium was charged into a plurality of 300 ml shake flasks. The shake flasks were inoculated with an inoculating loop of cells from an agar plate containing homogeneous colonies of the microorganisms on the plate (the purity of the isolates were confirmed by microscopic examination). The isolates had been maintained on agar plates under an atmosphere of methane and air having a 1:1 v/v gas ratio which had been transferred every two weeks. The gaseous phase of the inoculated flasks was then replaced with a gas mixture comprised of methane and air having a ratio of 1:1 on a v/v basis. The inoculated flasks were sealed air tight and were incubated on a rotary shaker of orbital radius 2.5 cm at 250 rpm and at 30° C. for two days until the turbidity in the medium had developed.
(§2) The cells were harvested by centrifugation at 10,000 ×g at 4° C. for 30 minutes. The cell pellet was washed twice with a 0.15 M phosphate buffer at a pH of 7.0 (containing 0.002 M MgCl2). […]
(§3) A 0.5 ml aliquot of each washed cell suspension (2 mg cells) was put into 10 ml vials at 4° C. which were sealed with a rubber cap. […] Samples of product (3 μl) were withdrawn periodically with a microsyringe and the products were analyzed by gas chromatography (ionization flame detector column). […]

[2] = tested on: Methylosinus trichosporium OB3b (NRRL B-11,196); experiment: Methane hydroxylation and alkene epoxidation by washed cell suspensions; type: cell-based; settings: methane-grown washed cells
Protocol: as §1, with “The shake flasks were inoculated with an inoculating loop of cells from an agar plate containing homogeneous colonies of the microorganisms on the plate (the purity of the isolates were confirmed by microscopic examination).” left out
(§4) The cells were harvested by centrifugation at 10,000 ×g at 4° C. for 30 minutes. The cell pellet was washed twice with a 0.15 M phosphate buffer at a pH of 7.0 (containing 0.002 M MgCl2). The washed cells were then suspended in a 0.15 M phosphate buffer at pH 7.0.
[…] The gaseous phase of the vials was removed with vacuum and then was replaced with a gas mixture of alkene and oxygen at a 1:1 v/v ratio. It was then incubated at 30° C. on a rotary shaker at 300 rpm. Samples of product (3 μl) were withdrawn periodically with a microsyringe and the products were analyzed by gas chromatography (ionization flame detector column).

[3] = tested on: Methylococcus capsulatus (CRL M1, NRRL B-11,219); experiment: Oxidation/epoxidation by washed cell suspensions; type: cell-based; settings: methane-grown washed cells
Protocol: as §1, with “The shake flasks were inoculated with an inoculating loop of cells from an agar plate containing homogeneous colonies of the microorganisms on the plate (the purity of the isolates were confirmed by microscopic examination).” left out
as §4
(§5) A 0.5 ml aliquot of each washed cell suspension (2 mg cells) was put into 10 ml vials at 4° C. which were sealed with a rubber cap. The gaseous phase of the vials was removed with vacuum and then was replaced with a gas mixture of alkene and oxygen at a 1:1 v/v ratio. It was then incubated at 30° C. on a rotary shaker at 300 rpm. Samples of product (3 μl) were withdrawn periodically with a microsyringe and the products were analyzed by gas chromatography (ionization flame detector column).
The experimental procedure described in Example 1 was used to prepare washed cell suspensions of methane-grown microorganisms and the use of the same to oxidize or epoxidize the branched chain alkanes, alkenes and dienes.

[4] = tested on: Methylobacterium organophilum (CRL 26, NRRL B-11,222); experiment: Epoxidation/hydroxylation by washed cell suspensions; type: cell-based
Protocol: as §1, §4, §5
Several experiments were carried out using a plurality of compounds capable of generating the necessary reducing power (NADH2 or NADPH2) required for the epoxidation of alkenes or dienes. These experiments were carried out using cell suspensions of methane grown methylotrophs using the procedure as described in Example 1 except that a stimulator compound was added to the reaction medium.

[5] = tested on: Methylocooccus capsulatus (Texas, NRRL B-11,201); experiment: Isobutylene epoxidation by washed cell suspensions; type: cell-based, Methylococcus capsulatus; settings: methane-grown washed cells
Protocol: as §1, §2, §3

[6] = tested on: in vivo methane mono-oxygenase system of the Bath strain; settings: formaldehyde at 4 mM; Stirling et al. 1979; cited from earlier work
[7] = tested on: whole cell suspensions of methylotrophs (C1 -utilizing microbes)

Question: Which results are given for C=C(C)C [Isobutene]?
Answer: isobutylene oxide obtained from isobutylene [1]: 550 nmoles per hr/mg protein; isobutylene oxide obtained from isobutylene [2]: 480 nmoles per hr/mg protein; Reaction Rate, isobutene to 1,2-epoxyisobutene [3]: 0.46 μmoles/hr/mg biomass; isobutylene oxide obtained from isobutylene ([4]; methane-grown washed cells): 140 nmoles per hr/mg protein; isobutylene oxide obtained from isobutylene [5]: 40 nmoles per hr/mg protein

Question: For C=C(C)CC [2-methyl-1-butene], which “Reaction Rate, 2-methyl-1-butene to 2-methyl-1,2-epoxybutane” value [3] is on record?
Answer: 0.128 μmoles/hr/mg biomass

Question: For C=O [HCHO, formaldehyde], which “Stimulation of the epoxidation of propylene” value [6] is on record?
Answer: 3-4 times

Question: And the “Effect on epoxidation of propylene” value ([7]; concentration higher than 4 mM, all the strains tested)?
Answer: inhibited the epoxidation

Question: What about the “Effect on propylene epoxidation and propane hydroxylation” value ([7]; higher than 2.0 μmoles/0.5 ml) of the same compound?
Answer: inhibited both reactions

Question: And the “Effect on propylene epoxidation and propane hydroxylation” value ([7]; lower concentration (0.125 μmoles/015 ml))?
Answer: stimulated both the epoxidation of propylene and the hydroxylation of propane

Question: And the “Epoxidation Rate, Propylene oxide” value ([4]; metabolite 4 mM, 1 Hr, control 1.4)?
Answer: 1.2 μmoles/0.5 ml Assay

Question: And the “Epoxidation Rate, Propylene oxide” value ([4]; metabolite 4 mM, 2 Hr, control 2.2)?
Answer: 2.0 μmoles/0.5 ml Assay

Question: What about the “Epoxidation Rate, Propylene oxide” value ([4]; metabolite 4 mM, 3 Hr, control 2.6) of the same compound?
Answer: 2.1 μmoles/0.5 ml Assay

Question: And the “Epoxidation Rate, Propylene oxide” value ([4]; metabolite 10 mM, 1 Hr, control 1.4)?
Answer: 1.2 μmoles/0.5 ml Assay

Question: What about the “Epoxidation Rate, Propylene oxide” value ([4]; metabolite 10 mM, 2 Hr, control 2.2) of the same compound?
Answer: 1.9 μmoles/0.5 ml Assay

Question: And the “Epoxidation Rate, Propylene oxide” value ([4]; metabolite 10 mM, 3 Hr, control 2.6)?
Answer: 2.0 μmoles/0.5 ml Assay
